Test results from EP2388012A1 (Roehampton University, priority 2010, dated 2011).
Where no end group is shown, it is not given here. The star is where a group is joined. Biotin = O=C1N[C@H]2[C@H](CS[C@H]2CCCCC(=O)*)N1

Columns and labels:
[1] = tested on: biotinylated Aß 1-42 to the Kissorphin-6 peptide; type: binding, human
[2] = tested on: biotinylated IAPP 1-37 to the Kissorphin-6 peptide; type: binding, human
[3] = tested on: biotinylated PrP 106-126 to the Kissorphin-6 peptide
Aß 1-42 fibrils = type: binding, human
Aß 25-35 fibrils = type: binding, human
IAPP 1-37 fibrils = type: binding, human
IAPP 20-29 fibrils = type: binding, human
Amyloid-Bri fibrils = type: binding, human
Amyloid-Dan fibrils = type: binding, human
[4] = tested on: mouse LHRH secreting cell line (GT1); type: cell-based
[5] = tested on: human neuroblastoma SH-SY5Y cell line; type: cell-based
[6] = target: GPR-54 G-protein coupled receptor (mouse) (UniProt Q91V45); experiment: cell-based or functional assay
Aß 1-42 = type: binding, human; details: 4°C 16 hours
IAPP 1-37 = type: binding, human; details: 4°C 16 hours
[7] = target: T1, GPR-54 G-protein coupled receptor (mouse), Q91V45; experiment: cell-based or functional assay
T1 chain: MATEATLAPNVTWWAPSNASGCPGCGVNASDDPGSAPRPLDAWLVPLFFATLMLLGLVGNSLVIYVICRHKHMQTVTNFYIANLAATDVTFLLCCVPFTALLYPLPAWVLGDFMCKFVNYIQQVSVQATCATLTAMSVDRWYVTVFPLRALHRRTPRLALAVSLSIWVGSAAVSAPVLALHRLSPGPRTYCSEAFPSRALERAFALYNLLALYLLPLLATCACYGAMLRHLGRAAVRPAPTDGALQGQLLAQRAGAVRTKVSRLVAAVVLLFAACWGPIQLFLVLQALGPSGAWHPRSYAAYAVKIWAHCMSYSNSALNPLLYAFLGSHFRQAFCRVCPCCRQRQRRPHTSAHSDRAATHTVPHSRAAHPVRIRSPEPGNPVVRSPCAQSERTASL

In the case of “Aß 1-28: Aß fragment, unlabelled competitor”, the “effect on binding of biotinylated Aß 1-42 to the Kissorphin-6 peptide” value [1] is reported as “no effect”, the “effect on binding of biotinylated IAPP 1-37 to the Kissorphin-6 peptide” value [2] is reported as “no effect” and the “effect on binding of biotinylated PrP 106-126 to the Kissorphin-6 peptide” value [3] is reported as “no effect”.

For “Aß 25-35: Aß fragment, functional neurotoxic domain (GSNKGAIIGLM)”, the “effect on binding of biotinylated Aß 1-42 to the Kissorphin-6 peptide” value [1] was “strongly inhibited”, the “effect on binding of biotinylated IAPP 1-37 to the Kissorphin-6 peptide” value [2] was “strongly inhibited” and the “effect on binding of biotinylated PrP 106-126 to the Kissorphin-6 peptide” value [3] was “strongly inhibited”.

For “Aß 29-40: Aß fragment, unlabelled competitor (GAIIGLMVGGVV; Amyloid-beta protein 40; UniProt P05067 700-711, looked up, fragment)”, the “effect on binding of biotinylated Aß 1-42 to the Kissorphin-6 peptide” value [1] was “strongly inhibited”, the “effect on binding of biotinylated IAPP 1-37 to the Kissorphin-6 peptide” value [2] was “strongly inhibited” and the “effect on binding of biotinylated PrP 106-126 to the Kissorphin-6 peptide” value [3] was “strongly inhibited”.

For “Aß 31-35: Aß fragment, the shortest cytotoxic form of Aß (IIGLM; Amyloid-beta protein 40; UniProt P05067 702-706, looked up, fragment)”, the “effect on binding of biotinylated Aß 1-42 to the Kissorphin-6 peptide” value [1] was “no effect”, the “effect on binding of biotinylated IAPP 1-37 to the Kissorphin-6 peptide” value [2] was “no effect” and the “effect on binding of biotinylated PrP 106-126 to the Kissorphin-6 peptide” value [3] was “no effect”.

With “Biotinylated Kisspeptin-10: N-terminally Biotinylated Kisspeptin-10, purchased from Bachem or Alpha Diagnostics” the “binding to plates coated with Aß 1-42 fibrils” value (Aß 1-42 fibrils) was “bound”, the “binding to plates coated with Aß 25-35 fibrils” value (Aß 25-35 fibrils) was “bound” and the “binding to plates coated with IAPP 1-37 fibrils” value (IAPP 1-37 fibrils) was “bound”. The “binding to plates coated with IAPP 20-29 fibrils” value (IAPP 20-29 fibrils) was “bound”, the “binding to Amyloid-Bri fibrils” value (Amyloid-Bri fibrils) was “No binding” and the “binding to Amyloid-Dan fibrils” value (Amyloid-Dan fibrils) was “No binding”. For the same molecule, the “binding to plates coated with PrP 106-126 fibrils” value (PrP 106-126 fibrils) was “bound” and the “binding to plates coated with PrP 118-135 fibrils” value (PrP 118-135 fibrils) was “bound”.

For “Biotinylated Kisspeptin-54: N-terminally Biotinylated Kisspeptin-54, purchased from Bachem or Alpha Diagnostics (Biotin-GTSLSPPPESSGSPQQPGLSAPHSRQIPAPQGAVLVQREKDLPNYNWNSFGLRF; ends and bridges not checked; UniProt Q15726 68-121, looked up)”, the “binding to plates coated with Aß 1-42 fibrils” value (Aß 1-42 fibrils) was “bound”, the “binding to plates coated with Aß 25-35 fibrils” value (Aß 25-35 fibrils) was “bound” and the “binding to plates coated with IAPP 1-37 fibrils” value (IAPP 1-37 fibrils) was “bound”. The “binding to plates coated with IAPP 20-29 fibrils” value (IAPP 20-29 fibrils) was “bound”, the “binding to Amyloid-Bri fibrils” value (Amyloid-Bri fibrils) was “No binding” and the “binding to Amyloid-Dan fibrils” value (Amyloid-Dan fibrils) was “No binding”. The “binding to plates coated with PrP 106-126 fibrils” value (PrP 106-126 fibrils) was “bound” and the “binding to plates coated with PrP 118-135 fibrils” value (PrP 118-135 fibrils) was “bound”.

“Kissorphin-6 (3-6): shorter sequence, SEQ ID No. 11, residues 3-6 of Kissorphin-6 (WNSF)” was tested, and the “effect on Kisspeptin-10 stimulated release of immunoreactive LHRH” value [4] was “no significant effect”, the “effect on Kisspeptin-13 stimulated release of immunoreactive LHRH” value [4] was “no significant effect” and the “effect on toxicity of Aß 1-42” value [5] was “significantly inhibited”. For the same molecule, the “effect on toxicity of Aß 25-35” value [5] was “significantly inhibited”, the “effect on toxicity of IAPP 1-37” value [5] was “no effect” and the “effect on toxicity of IAPP 20-29” value [5] was “no effect”. The “effect on toxicity of PrP 106-126” value [5] was “no effect”, the “effect on toxicity of PrP 118-135” value [5] was “no effect” and the “effect on toxicity of the Amyloid-Bri peptide” value [5] was “unaffected”. For the same molecule, the “effect on toxicity of the Amyloid-Dan peptide” value [5] was “unaffected”.

With Kisspeptin-10 (peptide) the LHRH release from mouse GT1 cells [6] was 4 fold.

In the case of “Kisspeptin-54 (27-54): fragment 27-54 of Kisspeptin-54 (IPAPQGAVLVQREKDLPNYNWNSFGLRF)”, the “binding of biotinylated Aß 1-42 to peptide coated plates” value (Aß 1-42) is reported as “significant binding”, the “binding of biotinylated IAPP 1-37 to peptide coated plates” value (IAPP 1-37) is reported as “significant binding” and the “effect on toxicity of Aß 1-42” value [5] is reported as “significantly inhibited”. For the same molecule, the “effect on toxicity of Aß 25-35” value [5] was “significantly inhibited”, the “effect on toxicity of IAPP 1-37” value [5] was “significantly inhibited” and the “effect on toxicity of IAPP 20-29” value [5] was “significantly inhibited”. The “effect on toxicity of PrP 106-126” value [5] was “significantly inhibited”, the “effect on toxicity of PrP 118-135” value [5] was “significantly inhibited” and the “effect on toxicity of the Amyloid-Bri peptide” value [5] was “unaffected”. The “effect on toxicity of the Amyloid-Dan peptide” value [5] was “unaffected” and the “binding of biotinylated PrP 106-126 to peptide coated plates” value (PrP 106-126) was “significant binding”.

In the case of “Kisspeptin-54: the 54 amino acid form of Kisspeptin, peptide derived from the Kiss1 gene, ligand for GPR-54 (SEQ ID No. 1)”, the “binding of biotinylated Aß 1-42 to peptide coated plates” value (Aß 1-42) is reported as “significant binding”, the “binding of biotinylated IAPP 1-37 to peptide coated plates” value (IAPP 1-37) is reported as “significant binding” and the “effect on toxicity of Aß 1-42” value [5] is reported as “significantly inhibited”. For the same molecule, the “effect on toxicity of Aß 25-35” value [5] was “significantly inhibited”, the “effect on toxicity of IAPP 1-37” value [5] was “significantly inhibited” and the “effect on toxicity of IAPP 20-29” value [5] was “significantly inhibited”. For the same molecule, the “effect on toxicity of PrP 106-126” value [5] was “significantly inhibited”, the “effect on toxicity of PrP 118-135” value [5] was “significantly inhibited” and the “effect on toxicity of the Amyloid-Bri peptide” value [5] was “unaffected”. The “effect on toxicity of the Amyloid-Dan peptide” value [5] was “unaffected” and the “binding of biotinylated PrP 106-126 to peptide coated plates” value (PrP 106-126) was “significant binding”.

LPNYNWNSFGLRF (modifications not checked) [Kisspeptin-13, Q15726 109-121] gave an LHRH release from mouse GT1 cells [7] of 4 fold.

With KTNMKHMAGAAAAGAVVGGLG (modifications not checked) [PrP 106-126] the Kd (Kissorphin-6 (human)) was 34.2 nM.

In the case of KCNTATCATQRLANFLVHSSNNFGAILSSTNVGSNTY (modifications not checked) [IAPP 1-37], the Kd (Kissorphin-6 (human)) is reported as 11.6 nM.
